Results as given in article PMC7560981 (Medicinal chemistry research : an international journal for …, 2020).
Read-outs that look alike come from different tables or passages of the source. Blank lines part the entries; values can stand above or below the compound they belong to.

How the values were obtained:
[1] = target: H4-stimulated PARP1 (human Parp-1) (Homo sapiens, UniProt P09874); assay: Inhibition of H4-stimulated PARP1 activation; type: biochemical; settings: human Parp-1, NAD+
[2] = ref Karpova et a., 2019; cited from earlier work
[3] = ref Karpova et a., 2019; cited from earlier work; remark: listed apart in the source
[4] = test system: cancer cell lines; settings: ref Nieborowska-Skorska et al., 2019, cited from earlier work
[5] = 90 min, pH 7.4
[6] = Stability in mouse liver microsomes; type: in vitro ADME; settings: 1 μM, 37 °C
[7] = Stability in human liver microsomes; type: in vitro ADME; settings: 1 μM, 37 °C
[8] = Maximum kinetic aqueous solubility; settings: 2% DMSO/phosphate buffer pH 7.4; theoretical maximum 200 μM
[9] = test system: Nalm-6 isogenic RAD54−/− human leukemia cells; type: cell-based; settings: clonogenic assay
[10] = H4/PARP Inhibition IC50, histone H4-coated plates
[11] = read-out: H4/PARP Inhibition IC50, histone H4-coated plates

H4-stimulated PARP1 (human Parp-1), sequence (P09874 whole entry): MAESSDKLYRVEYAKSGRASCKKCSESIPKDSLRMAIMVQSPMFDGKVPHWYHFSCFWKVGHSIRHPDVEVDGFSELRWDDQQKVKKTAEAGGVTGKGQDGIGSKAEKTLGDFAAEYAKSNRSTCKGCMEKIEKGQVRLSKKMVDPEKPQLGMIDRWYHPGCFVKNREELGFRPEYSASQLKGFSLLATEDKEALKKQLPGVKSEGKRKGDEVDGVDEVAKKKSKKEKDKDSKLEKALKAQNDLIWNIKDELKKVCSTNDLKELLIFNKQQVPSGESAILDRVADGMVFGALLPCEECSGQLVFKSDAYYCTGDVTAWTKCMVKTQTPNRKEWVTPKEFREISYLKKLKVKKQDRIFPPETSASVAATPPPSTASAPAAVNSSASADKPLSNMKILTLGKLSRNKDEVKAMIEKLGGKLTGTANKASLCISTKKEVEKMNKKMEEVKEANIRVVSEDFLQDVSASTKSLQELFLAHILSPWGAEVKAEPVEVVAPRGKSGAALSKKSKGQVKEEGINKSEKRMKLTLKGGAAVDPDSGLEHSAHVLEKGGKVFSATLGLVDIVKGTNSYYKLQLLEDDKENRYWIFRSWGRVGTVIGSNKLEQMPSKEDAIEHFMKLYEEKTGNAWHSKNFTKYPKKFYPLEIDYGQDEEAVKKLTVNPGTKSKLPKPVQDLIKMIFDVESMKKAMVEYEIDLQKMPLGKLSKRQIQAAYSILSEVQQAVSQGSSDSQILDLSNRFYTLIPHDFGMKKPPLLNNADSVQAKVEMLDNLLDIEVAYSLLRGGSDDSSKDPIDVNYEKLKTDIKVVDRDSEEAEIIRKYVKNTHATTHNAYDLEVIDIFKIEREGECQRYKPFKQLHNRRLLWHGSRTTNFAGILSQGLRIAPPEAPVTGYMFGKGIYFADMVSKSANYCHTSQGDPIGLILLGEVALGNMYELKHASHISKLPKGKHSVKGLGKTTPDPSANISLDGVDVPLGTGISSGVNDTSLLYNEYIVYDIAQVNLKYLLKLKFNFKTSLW

- IC50 [1, 10]: 54 nM
SMILES: C[N+]1(CC(=O)OC2CCCCCCCCCCC2)CCCCCC1 [Compound 3, 1-(2-(Cyclododecyloxy)-2-oxoethyl)-1-methylazepan-1-ium iodide]

- IC50 [1, 10]: 104 nM
SMILES: C[N+]1(CC(=O)OC2CCCCCCCCCCC2)CCCCC1.[I-] [Compound 1, 1-(2-(Cyclododecyloxy)-2-oxoethyl)-1-methylpiperidin-1-ium iodide]
- plasma protein binding (in words) [2]: relatively high
- in vivo half-life (in words) [3]: longer than expected
- effect in combination with olaparib (in words) ([4]; a number of cell lines): synergistic effect
- potency in in vitro proliferation assays compared with olaparib (in words) [4]: more potent than olaparib

SMILES: C[N+]1(CC(=O)OC2CCCC2)CCCCC1.[I-] [Compound 17, 1-(2-(Cyclopentyloxy)-2-oxoethyl)-1-methylpiperidin-1-ium iodide]
- IC50 [1, 10]: 57.1 nM
- Max. Aq. Solubility [5]: 200 µM

- IC50 [1, 10]: 77.1 nM
SMILES: C[N+]1(CC(=O)OC2CCCCC2)CCCCC1 [Compound 16, 1-(2-(Cyclohexyloxy)-2-oxoethyl)-1-methylpiperidin-1-ium iodide]

SMILES: C[N+]1(CC(=O)OC2CCCCCCCCCCC2)CCCC1.[I-] [Compound 2]
- Liver Microsomal Stability (t1/2, min) Mouse + NADPH [6]: 3.8 min
- IC50 [1, 11]: 52.4 nM
- Liver Microsomal Stability (t1/2, min) Human + NADPH [7]: < 2 min

SMILES: C[N+]1(CC(=O)OC2CCCCCCCCCCC2)CCOCC1.[I-] [Compound 5, 4-(2-(Cyclododecyloxy)-2-oxoethyl)-4-methylmorpholin-4-ium iodide]
- IC50 [1, 10]: 34.5 nM
- Max. Aq. Solubility [5]: 200 µM

SMILES: CC(C)(C)OC(=O)N1CC[N+](C)(CC(=O)OC2CCCCCCCCCCC2)CC1.[I-] [Compound 8, 4-(tert-Butoxycarbonyl)-1-(2-(cyclodedecyloxy)-2-oxoethyl)-1-methylpiperazin-1-ium iodide]
- Liver Microsomal Stability (t1/2, min) Mouse + NADPH [6]: 4.1 min
- IC50 [1, 11]: 55.8 nM
- Liver Microsomal Stability (t1/2, min) Human + NADPH [7]: < 2 min

SMILES: C[N+]1(CC(=O)OC2CCCCCCCCCCC2)CCSCC1.[I-] [Compound 6, 4-(2-(Cyclododecyloxy)-2-oxoethyl)-4-methylthiomorphilin-4-ium iodide]
- Liver Microsomal Stability (t1/2, min) Mouse + NADPH [6]: 4 min
- IC50 [1, 11]: 156 nM
- Liver Microsomal Stability (t1/2, min) Human + NADPH [7]: < 2 min

- IC50 [1, 10]: 80 nM
SMILES: C[N+]1(CC(=O)OC2CCCCCCC2)CCCCC1 [Compound 15, 1-(2-(Cyclooctyloxy)-2-oxoethyl)-1-methylpiperidin-1-ium iodide]

- IC50 [1, 10]: 61.8 nM
SMILES: C[N+]1(CC(=O)OC2CCCCCCCCCCC2)CCC(Cc2ccccc2)CC1 (stereo not drawn) [Compound 9, 4-(Benzyl)-1-(2-(cyclododecyloxy)-2-oxoethyl)-1-methylpiperidin-1ium iodide]

- Max. Aq. Solubility [8]: 95 µM
- IC50 [1, 10]: 45.6 nM
SMILES: CC1(C)CC[N+](C)(CC(=O)OC2CCCCCCCCCCC2)CC1.[I-] [Compound 4, 1-(2-(Cyclododecyloxy)-2-oxoethyl)-1,4,4-trimethylpiperidin-1-ium iodide]

- IC50 [1, 10]: 142 nM
SMILES: CCC[N+]1(CC(=O)OC2CCCCCCCCCCC2)CCCCC1 [Compound 11, 1-(2-(Cyclododecyloxy)-2-oxoethyl)-1-(1-propyl)piperidin-1-ium iodide]

- IC50 [1, 10]: 53.7 nM
SMILES: C[N+]1(CC(=O)OC2CCCCCCCCC2)CCCCC1 [Compound 14, 1-(2-(Cyclodecyloxy)-2-oxoethyl)-1-methylpiperidin-1-ium iodide]

SMILES: CC[N+]1(CC(=O)OC2CCCCCCCCCCC2)CCCCC1.[I-] [Compound 10, 1-(2-(Cyclododecyloxy)-2-oxoethyl)-1-ethylpiperidin-1-ium iodide]
- IC50 [1, 10]: 174 nM
- Max. Aq. Solubility [5]: 200 µM

- IC50 [1, 10]: 136 nM
SMILES: CCCC[N+]1(CC(=O)OC2CCCCCCCCCCC2)CCCCC1 [Compound 12, 1-(2-(Cyclododecyloxy)-2-oxoethyl)-1-(1-butyl)piperidin-1-ium iodide]

- IC50 [1, 10]: 258 nM
SMILES: CCCCC[N+]1(CC(=O)OC2CCCCCCCCCCC2)CCCCC1 [Compound 13, 1-(2-(Cyclododecyloxy)-2-oxoethyl)-1-(1-pentyl)piperidin-1-ium iodide]

- IC50 [1, 11]: 191 nM
SMILES: CN(C(=O)CO[N+]1(C)CCCCC1)C1CCCCCCCCCCC1 [Compound 18, 1-(2-(Cyclododecyl(methyl)amino)-2-oxoethoxy)-1-methylpiperidin-1ium iodide]

SMILES: C[N+]1(CC(=O)OC2CCCCCCCCCCC2)CCNCC1.[I-] [Compound 7, 1-(2-(Cyclododecyloxy)-2-oxoethyl)-1-methylpiperazinium iodide]
- IC50 [1, 10]: 466 nM
- anti-clonogenic activity against BRCA-deficient NALM6 leukemia cells (in words) [9]: potent anti-clonogenic activity
